target: T1, IRAK4 (Homo sapiens, UniProt Q9NWZ3); test: IRAK-4 activity inhibition assay (Caliper); assay type: biochemical; settings: 37 μM ATP, 3.5 nM IRAK4
T1 sequence (Q9NWZ3 1-460): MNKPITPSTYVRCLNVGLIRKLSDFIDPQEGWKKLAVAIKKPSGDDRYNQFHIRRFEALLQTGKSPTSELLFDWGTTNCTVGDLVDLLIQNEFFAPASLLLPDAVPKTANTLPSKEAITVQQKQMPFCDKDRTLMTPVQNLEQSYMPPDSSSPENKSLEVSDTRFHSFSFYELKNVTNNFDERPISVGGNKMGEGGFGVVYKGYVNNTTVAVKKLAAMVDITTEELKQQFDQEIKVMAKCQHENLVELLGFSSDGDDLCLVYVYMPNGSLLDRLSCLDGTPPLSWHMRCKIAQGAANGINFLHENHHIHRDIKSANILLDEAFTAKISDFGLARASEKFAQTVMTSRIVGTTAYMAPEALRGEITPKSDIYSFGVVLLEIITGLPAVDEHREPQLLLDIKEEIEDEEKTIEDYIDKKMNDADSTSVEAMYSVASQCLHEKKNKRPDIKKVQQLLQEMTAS

Q: Which IC50 does the source give for `CN[C@H]1CC[C@H](Oc2ncnc3sc4c(c23)[C@@H](C[C@@H](O)C(N)=O)CC4)CC1` [Compound I-140, (2R)-2-hydroxy-3-[(3R)-12-[[4-(methylamino)cyclohexyl]oxy]-7-thia-9,11-diazatricyclo[6.4.0.0[2,6]]dodeca-1(8),2(6),9,11-tetraen-3-yl]propanamide] here?
A: Its IC50 is < 5 µM.

Q: `C[C@@H](O)CNC(=O)C[C@H]1CCc2sc3ncnc(O[C@H]4CC[C@H](N(C)C)CC4)c3c21` [Compound I-141, 2-((R)-4-(((1r,4R)-4-(dimethylamino)cyclohexyl)oxy)-6,7-dihydro-5H-cyclopenta[4,5]thieno[2,3-d]pyrimidin-5-yl)-N—((R)-2-hydroxypropyl)acetamide] was tested. Which IC50 did it give?
A: The IC50 was 5 to 20 µM.

Q: For `NC(=O)C[C@H]1CCc2sc3ncnc(OCC4CCNCC4)c3c21` [Compound I-143, 2-[(3R)-12-(piperidin-4-ylmethoxy)-7-thia-9,11-diazatricyclo[6.4.0.0[2,6]]dodeca-1(12),2(6),8,10-tetraen-3-yl]acetamide], which IC50 is on record?
A: The IC50 was 5 to 20 µM.

Q: Which IC50 does the source give for `OCC[C@@H]1CCc2sc3ncnc(O[C@H]4CC[C@H](N5CCOCC5)CC4)c3c2C1` [Compound I-145, 2-((R)-4-(((1r,4R)-4-morpholinocyclohexyl)oxy)-5,6,7,8-tetrahydrobenzo[4,5]thieno[2,3-d]pyrimidin-6-yl)ethanol] here?
A: The IC50 was < 5 µM.

Q: For `CNC1CCC(Oc2ncnc3sc4c(c23)[C@@H](C[C@H](N)C(N)=O)CC4)CC1` (stereo partly drawn) [Compound I-146, (2S)-2-amino-3-[(3R)-12-[[4-(methylamino)cyclohexyl]oxy]-7-thia-9,11-diazatricyclo[6.4.0.0[2,6]]dodeca-1(8),2(6),9,11-tetraen-3-yl]propanamide], which IC50 is on record?
A: The IC50 was < 5 µM.

Q: How did the IC50 turn out when `CC[C@H](C[C@H]1CCc2sc3ncnc(N[C@H]4CC[C@H](N(C)C)CC4)c3c21)OC` [Compound I-147, (1r,4R)-N1-((R)-5-((R)-2-methoxybutyl)-6,7-dihydro-5H-cyclopenta[4,5]thieno[2,3-d]pyrimidin-4-yl)-N4,N4-dimethylcyclohexane-1,4-diamine] was run?
A: The IC50 was < 5 µM.

Q: With `CC[C@@H](C[C@H]1CCc2sc3ncnc(N[C@H]4CC[C@H](N(C)C)CC4)c3c21)OC` [Compound I-148, (1r,4R)-N1-((R)-5-((S)-2-methoxybutyl)-6,7-dihydro-5H-cyclopenta[4,5]thieno[2,3-d]pyrimidin-4-yl)-N4,N4-dimethylcyclohexane-1,4-diamine] as the compound, how does the IC50 read?
A: Its IC50 is < 5 µM.

Q: Which IC50 does the source give for `NC(=O)C[C@H]1CCc2sc3ncnc(O[C@H]4CC[C@H](N)CC4)c3c21` [Compound I-150, 2-[(3R)-12-[(4-aminocyclohexyl)oxy]-7-thia-9,11-diazatricyclo[6.4.0.0[2,6]]dodeca-1(12),2(6),8,10-tetraen-3-yl]acetamide] here?
A: The IC50 was < 5 µM.

Q: `NC(=O)C[C@H]1CCc2sc3ncnc(O[C@H]4CC[C@H](N5CC6(COC6)C5)CC4)c3c21` [Compound I-152, 2-[(3R)-12-[(4-[2-oxa-6-azaspiro[3.3]heptan-6-yl]cyclohexyl)oxy]-7-thia-9,11-diazatricyclo[6.4.0.0[2,6]]dodeca-1(8),2(6),9,11-tetraen-3-yl]acetamide] was tested. Which IC50 did it give?
A: Its IC50 is < 5 µM.

Q: With `NC(=O)CC[C@H]1CCCc2sc3ncnc(O[C@H]4CC[C@H](N)CC4)c3c21` [Compound I-153, 3-((R)-4-(((1r,4R)-4-aminocyclohexyl)oxy)-5,6,7,8-tetrahydrobenzo[4,5]thieno[2,3-d]pyrimidin-5-yl)propanamide] as the compound, how does the IC50 read?
A: The IC50 was < 5 µM.

Q: How did the IC50 turn out when `NC(=O)CC[C@@H]1CCCc2sc3ncnc(O[C@H]4CC[C@H](N)CC4)c3c21` [Compound I-154, 3-((S)-4-(((1r,4S)-4-aminocyclohexyl)oxy)-5,6,7,8-tetrahydrobenzo[4,5]thieno[2,3-d]pyrimidin-5-yl)propanamide] was run?
A: Its IC50 is 5 to 20 µM.

Q: `CN(C)[C@]1(C)CC[C@@H](Oc2ncnc3sc4c(c23)[C@@H](CC(N)=O)CC4)CC1` [Compound I-155, 2-[(3R)-12-[[4-(dimethylamino)-4-methylcyclohexyl]oxy]-7-thia-9,11-diazatricyclo[6.4.0.0[2,6]]dodeca-1(8),2(6),9,11-tetraen-3-yl]acetamide] was tested. Which IC50 did it give?
A: Its IC50 is < 5 µM.

Q: How did the IC50 turn out when `CN[C@]1(C)CC[C@@H](Oc2ncnc3sc4c(c23)[C@@H](CC(N)=O)CC4)CC1` [Compound I-156, 2-[(3R)-12-[[4-methyl-4-(methylamino)cyclohexyl]oxy]-7-thia-9,11-diazatricyclo[6.4.0.0[2,6]]dodeca-1(8),2(6),9,11-tetraen-3-yl]acetamide] was run?
A: The IC50 was < 5 µM.

Q: For `NC(=O)C[C@H]1CCc2sc3ncnc(O[C@H]4CC[C@@H](N5CCNC(=O)C5)CC4)c3c21` [Compound I-157, 2-((R)-4-(((1s,4S)-4-(3-oxopiperazin-1-yl)cyclohexyl)oxy)-6,7-dihydro-5H-cyclopenta[4,5]thieno[2,3-d]pyrimidin-5-yl)acetamide], which IC50 is on record?
A: Its IC50 is < 5 µM.

Q: For `NC(=O)C[C@H]1CCc2sc3ncnc(O[C@H]4CC[C@H](N5CCNC(=O)C5)CC4)c3c21` [Compound I-158, 2-((R)-4-(((1r,4R)-4-(3-oxopiperazin-1-yl)cyclohexyl)oxy)-6,7-dihydro-5H-cyclopenta[4,5]thieno[2,3-d]pyrimidin-5-yl)acetamide], which IC50 is on record?
A: The IC50 was 20 to 50 µM.

Q: How did the IC50 turn out when `CN[C@H]1CC[C@H](Oc2ncnc3sc4c(c23)[C@@H](C[C@H]2NC(=O)NC2=O)CC4)CC1` [Compound I-159, (5R)-5-[[(3R)-12-[[4-(methylamino)cyclohexyl]oxy]-7-thia-9,11-diazatricyclo[6.4.0.0[2,6]]dodeca-1(8),2(6),9,11-tetraen-3-yl]methyl]imidazolidine-2,4-dione] was run?
A: Its IC50 is < 5 µM.

Q: Which IC50 does the source give for `CN(C)[C@H]1CC[C@H](Oc2ncnc3sc4c(c23)[C@@H](C[C@H](N)C(N)=O)CC4)CC1` [Compound I-160, (2S)-2-amino-3-[(3R)-12-[[4-(dimethylamino)cyclohexyl]oxy]-7-thia-9,11-diazatricyclo[6.4.0.0[2,6]]dodeca-1(8),2(6),9,11-tetraen-3-yl]propanamide] here?
A: Its IC50 is < 5 µM.

Q: For `C[C@]1(N)CC[C@H](Oc2ncnc3sc4c(c23)[C@@H](CC(N)=O)CC4)CC1` [Compound I-161, 2-[(3R)-12-[(4-amino-4-methylcyclohexyl)oxy]-7-thia-9,11-diazatricyclo[6.4.0.0[2,6]]dodeca-1(8),2(6),9,11-tetraen-3-yl]acetamide], which IC50 is on record?
A: The IC50 was 5 to 20 µM.

Q: With `CN[C@H]1CC[C@H](Oc2ncnc3sc4c(c23)[C@@H](CCC(N)=O)CCC4)CC1` [Compound I-162, 3-((R)-4-(((1r,4R)-4-(methylamino)cyclohexyl)oxy)-5,6,7,8-tetrahydrobenzo[4,5]thieno[2,3-d]pyrimidin-5-yl)propanamide] as the compound, how does the IC50 read?
A: The IC50 was < 5 µM.

Q: How did the IC50 turn out when `CN(C)[C@H]1CC[C@H](Oc2ncnc3sc4c(c23)[C@@H](CCC(N)=O)CCC4)CC1` [Compound I-163, 3-((R)-4-(((1r,4R)-4-(dimethylamino)cyclohexyl)oxy)-5,6,7,8-tetrahydrobenzo[4,5]thieno[2,3-d]pyrimidin-5-yl)propanamide] was run?
A: The IC50 was < 5 µM.

Q: For `CC(=O)N1CCc2sc3ncnc(O[C@H]4CC[C@H](N(C)C)CC4)c3c2C1` [Compound I-167], which IC50 is on record?
A: The IC50 was < 5 µM.

Q: How did the IC50 turn out when `CNC(=O)N1CCc2sc3ncnc(O[C@H]4CC[C@H](N(C)C)CC4)c3c2C1` [Compound I-169, 3-[[4-(dimethylamino)cyclohexyl]oxy]-N-methyl-8-thia-4,6,12-triazatricyclo[7.4.0.0[2,7]]trideca-1(9),2(7),3,5-tetraene-12-carboxamide] was run?
A: Its IC50 is < 5 µM.

Q: `CN(C)[C@H]1CC[C@H](Oc2ncnc3sc4c(c23)CN(C(=O)CC2CC2)CC4)CC1` [Compound I-170, 2-cyclopropyl-1-(3-[[4-(dimethylamino)cyclohexyl]oxy]-8-thia-4,6,12-triazatricyclo[7.4.0.0̂[2,7]]trideca-1(9),2(7),3,5-tetraen-12-yl)ethan-1-one] was tested. Which IC50 did it give?
A: Its IC50 is 5 to 20 µM.

Q: With `CC(=O)N1CCc2sc3ncnc(O[C@H]4CC[C@H](N5CCOCC5)CC4)c3c2C1` [Compound I-171, 1-(3-[[4-(morpholin-4-yl)cyclohexyl]oxy]-8-thia-4,6,12-triazatricyclo[7.4.0.0[2,7]]trideca-1(9),2(7),3,5-tetraen-12-yl)ethan-1-one] as the compound, how does the IC50 read?
A: Its IC50 is 5 to 20 µM.

Q: `CC(=O)N1CCc2sc3ncnc(N[C@H]4CC[C@H](N5CCOCC5)CC4)c3c2C1` [Compound I-172, 1-(3-[[4-(morpholin-4-yl)cyclohexyl]amino]-8-thia-4,6,12-triazatricyclo[7.4.0.0-[2,7]]trideca-1(9),2(7),3,5-tetraen-12-yl)ethan-1-one] was tested. Which IC50 did it give?
A: The IC50 was 5 to 20 µM.

Q: With `CC(=O)N1CCc2sc3ncnc(N[C@H]4CC[C@H](N(C)C)CC4)c3c2C1` [Compound I-173, 1-(3-[[4-(dimethylamino)cyclohexyl]amino]-8-thia-4,6,12-triazatricyclo[7.4.0.0-[2,7]]trideca-1(9),2(7),5-trien-12-yl)ethan-1-one] as the compound, how does the IC50 read?
A: Its IC50 is 5 to 20 µM.

Q: With `CCS(=O)(=O)N1CCc2sc3ncnc(N[C@H]4CC[C@H](N5CCOCC5)CC4)c3c2C1` [Compound I-181, 12-(ethanesulfonyl)-N-[4-(morpholin-4-yl)cyclohexyl]-8-thia-4,6, 12-triazatricyclo[7.4.0.0[2,7]]trideca-1(9),2(7),3,5-tetraen-3-amine] as the compound, how does the IC50 read?
A: Its IC50 is 5 to 20 µM.

Q: Which IC50 does the source give for `CC(O)C[C@@H]1CCc2sc3ncnc(O[C@H]4CC[C@H](N5CCOCC5)CC4)c3c2C1` (stereo partly drawn) [Compound I-182, 1-((R)-4-(((1r,4R)-4-morpholinocyclohexyl)oxy)-5,6,7,8-tetrahydrobenzo[4,5]thieno[2,3-d]pyrimidin-6-yl)propan-2-ol] here?
A: The IC50 was < 5 µM.

Q: With `CCC(O)C[C@@H]1CCc2sc3ncnc(O[C@H]4CC[C@H](N5CCOCC5)CC4)c3c2C1` (stereo partly drawn) [Compound I-183, 1-((R)-4-(((1r,4R)-4-morpholinocyclohexyl)oxy)-5,6,7,8-tetrahydrobenzo[4,5]thieno[2,3-d]pyrimidin-6-yl)butan-2-ol] as the compound, how does the IC50 read?
A: The IC50 was < 5 µM.

Source: patent publication US20160193216A1 (Nimbus Iris, Inc., priority 2012, published 2016)
